Marks after values point to notes of the source that are not given here.
How the values were obtained:
CLOCK gene = assay: CLOCK expression by qPCR in CCA lines after melatonin; format: cell-based, human; conditions: melatonin 10-11 M for 48 hours
Description: Methods: Melatonin immunoreactivity, the expression of melatonin biosynthesis enzymes and receptors were assessed by immunohistochemistry in tissue arrays from normal and CCA patients, and by qPCR and immunoblots in intra-hepatic and extra-hepatic CCA cell lines, and a normal cholangiocyte line (H69). Proliferation was evaluated in vitro by MTS assay in CCA lines and H69 after treatment with melatonin (10-7 to 10-11 M, 24-72 hours). In parallel, the expression of CLOCK after melatonin treatment (10-11 M for 48 hours) was assessed in CCA lines and normal cholangiocytes by qPCR.

AANAT = target: T1, AANAT (Rattus norvegicus, UniProt Q64666); assay: Melatonin levels in serum and cholangiocyte supernatant (ELISA) of Morpholino-treated rats; format: in vivo; conditions: normal rats
T1 construct: the expression of AANAT in liver sections and cholangiocytes from the selected groups of animals; from tissue; host or cells: Male Fischer 344 rats: liver sections, total liver, isolated cholangiocytes, pineal gland, small intestine, serum
T1 sequence (Q64666 whole entry): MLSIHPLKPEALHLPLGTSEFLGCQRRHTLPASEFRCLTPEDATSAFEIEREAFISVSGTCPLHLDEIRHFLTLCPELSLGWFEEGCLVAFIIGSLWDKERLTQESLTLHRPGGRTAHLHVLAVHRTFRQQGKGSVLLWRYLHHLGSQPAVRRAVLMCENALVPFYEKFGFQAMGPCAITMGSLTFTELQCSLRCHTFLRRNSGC
Description: In separate experiments, normal rats treated with Vivo-Morpholino sequences of AANAT (5'-[…] NO:1), to reduce the biliary expression of AANAT) or Morpholino mismatched (5'-[…] NO:2)) (Gene Tools LCC) (1 mg/Kg BW/day) for 1 week via an implanted portal vein catheter. Serum, liver tissue, cholangiocytes, kidney, spleen, small intestine, stomach and heart were collected. Since our goal was to knock-down AANAT expression in the liver without inhibiting AANAT expression in other organs, we used a lower dose (1 mg/Kg/day) of Vivo-Morpholino than that described in the original study (3.0 mg/kg/day (Arora et al., 2002). This approach minimizes the amount of Vivo-Morpholino that circulates outside of the liver after slow infusion into the portal vein. See below for the surgical procedure for the implantation of the portal vein catheter by which AANAT Vivo-Morpholino or Morpholino mismatched was administered. Melatonin levels in serum and medium of primary cultures of isolated cholangiocytes were determined by ELISA kits (Genway, San Diego, Calif.). Supernatants were obtained from cholangiocytes (1×10^7 cells/ml) that were incubated for 6 hours at 37° C. (Glaser et al., 2008).

Compound | Increase in levels of the CLOCK gene in CCA cells (CLOCK gene) | Melatonin supernatant (AANAT; cholangiocyte supernatant, 6 hours at 37° C., 1 mg/Kg BW/day for 1 week) | Melatonin serum (AANAT; 1 mg/Kg BW/day for 1 week via portal vein catheter)
COc1ccc2[nH]cc(CCNC(C)=O)c2c1 [melatonin] | ~50% |  | 
AANAT Vivo-Morpholino: Vivo-Morpholino sequence of AANAT 5′-GTTCCCCAGCTTTGGAAGTGGTCCC (SEQ ID NO:1), to reduce the biliary expression of AANAT (all phosphorodiamidate morpholino (PMO); Vivo-Morpholino delivery moiety attached, position not given here, further chemistry not fully specified) |  | 3.2 ± 0.2^a pg/ml | 58.4 ± 8.7^a pg/ml

Source: US9468670B2, “Melatonin-based treatment and diagnosis of bile duct disease” (Texas A&M University System, priority 2011, dated 2016)
